Source: patent US7214771B2, “Nucleic acid and protein expression thereby and their involvement in stress” (University of Medicine & Dentistry of New Jersey, priority 1999, dated 2007)

Columns and labels:
RIAZ = experiment: Localization of GFP/RIAZ in HTB-46 cells cotransfected with RIα (fluorescence microscopy); format: cell-based, human; settings: HTB-46 cells cotransfected with RIα and GFP/RIAZ; cAMP for 8 hr
Description: FIG. 10 depicts the effect of RIα and cAMP on localization of RIAZ. GJP fusions at the N-terminus (GFP/RIAZ) and the C-terminus (RIAZ/GFP) were generated. […] Localization of GFP/RIAZ on co-transfection with RIα is redistributed to the nucleus on addition of cAMP(Panel D). In more detail, nuclear localization of RIAZ and regulation of its localization by RIα in the presence or absence of cAMP was performed as follows: (A,B) HTB-46 cells were plated the night before and then transfected with GFP/RIAZ the following day. Localization of RIAZ was visualized 24 hr after transfection using a fluorescence microscope. (C) HTB-46 cells were cotransfected with RIα and GFP/RIAZ in the absence of cAMP. (D) RIAZ distribution after addition of cAMP for 8 hr.
To further understand the mechanisms of interaction of RIα with RIAZ, we constructed a hybrid protein between RIAZ and the green fluorescence protein (GFP), with GFP fused to either the N-terminal (GFP/RIAZ) or the C-terminal (RIAZ/GFP) end of RIAZ. Distribution of RIAZ was visualized using a Zeiss Axioskop fluorescence microscope. […] Even though the nuclear localization of RIAZ was not affected by the position of GFP either at the amino or the carboxy terminal end of RIAZ, however, whether the transcriptional activity of RIAZ may be affected remains to be determined. […]

[1] = tested on: human ovarian cancer cells; settings: cited from earlier work
[2] = tested on: human bladder cancer and human testicular embryonal germ cell carcinoma; settings: simultaneous cisplatin and dipyridamole; high concentrations of dipyridamole; cited from earlier work
RIα = molecular target: T1, RIα (Homo sapiens, UniProt P10644); experiment: Binding of in vitro-translated RIAZ to immobilized GST-RIα (pull down); settings: [35S]methionine labeled RIAZ; GST as control
T1 construct: made in house; host or cells: E. coli (GST-RIα); RIAZ made by in vitro translation
Description: FIG. 8. Binding of in-vitro translated RIAZ protein to RIα. GST and GST-RIα proteins were immobilized on glutathione resins and then incubated with [^35S]methinine labeled RIAZ. The complexes were thoroughly washed and eluted in gel-loading buffer, separated by SDS-PAGE, and exposed to X-ray film.
Deletion of a cluster of ATG in the 5′ end of the RIAZ cDNA seemed to enhance translation from the putative ATG start codon of the open reading frame that encode the BTB-POZ domain zinc finger. […] In addition, based on the functions of other BTB-POZ zinc finger proteins in this family, which play various roles in apoptosis, transcription repression, and regulation of cell proliferation, we speculate that RIAZ may have a role in these important cellular functions. Since the emergence of drug resistance in cancer is also intimately influenced by apoptosis, alterations in cellular transcription programs and tumorigenesis, therefore, it is conceivable that RIα mediated drug resistance may be executed through the actions of RIAZ. Biochemical and molecular characterizations of the interaction of RIAZ with RI and its function and significance in drug resistance may yield insights into the mechanisms of this novel cAMP signaling pathway.

T1 sequence (P10644 whole entry): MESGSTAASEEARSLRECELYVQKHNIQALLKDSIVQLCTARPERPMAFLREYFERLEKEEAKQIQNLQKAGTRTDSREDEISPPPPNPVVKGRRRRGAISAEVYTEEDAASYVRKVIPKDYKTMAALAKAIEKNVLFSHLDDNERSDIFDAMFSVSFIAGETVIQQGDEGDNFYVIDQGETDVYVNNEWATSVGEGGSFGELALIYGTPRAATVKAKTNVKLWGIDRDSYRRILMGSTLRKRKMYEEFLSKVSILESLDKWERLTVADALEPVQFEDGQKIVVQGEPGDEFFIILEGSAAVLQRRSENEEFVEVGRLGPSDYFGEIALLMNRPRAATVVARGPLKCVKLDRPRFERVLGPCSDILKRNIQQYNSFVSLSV

Nc1ncnc2c1nc(Br)n2[C@@H]1O[C@@H]2COP(=O)(O)O[C@H]2[C@H]1O [8-Br-cAMP]
RIAZ subcellular distribution after treatment (RIAZ): translocate to the nucleus

OCCN(CCO)c1nc(N2CCCCC2)c2nc(N(CCO)CCO)nc(N3CCCCC3)c2n1 [dipyridamole]
effect on growth of cisplatin-resistant cells ([1]; dipyridamole treatment, cisplatin-resistant cells): did not affect the growth
tumor response in combination with cisplatin [2]: complete tumor regression

CC(C)Cn1c(=O)n(C)c(=O)c2[nH]cnc21 [3-isobutyl-1-methylxanthine]
effect on cisplatin sensitivity ([1]; treated ovarian carcinoma cells compared to untreated cells): increase in cisplatin sensitivity

B1: RIAZ: novel BTB-POZ domain zinc finger protein of 641 amino acids, SEQ ID NO: 17 (protein, listed as Homo sapiens)
chain: MERVNDASCGPSGCYTYQVSRHSTEMLHNLNQQRKNGGRFCDVLLRVGDESFPAHRAVLAACSEYFESVFSAQLGDGGAADGGPADVGGATAAPGGGAGGSRELEMHTISSKVFGDILDFAYTSRIVVRLESFPELMTAAKFLLMRSVIEICQEVIKQSNVQILVPPARADIMLFRPPGTSDLGFPLDMTNGAALAANSNGIAGSMQPEEEAARAAGAAIAGQASLPVLPGVDRLPMVAGPLSPQLLTSPFPSVASSAPPLTGKRGRGRPRKANLLDSMFGSPGGLREAGILPCGLCGKVFTDANRLRQHEAQHGVTSLQLGYIDLPPPRLGENGLPISEDPDGPRKRSRTRKQVACEICGKIFRDVYHLNRHKLSHSGEKPYSCPVCGLRFKRKDRMSYHVRSHDGSVGKPYICQSCGKGFSRPDHLNGHIKQVHTSERPHKCQTCNASFATRDRLRSHLACHEDKVPCQVCGKYLRAAYMADHLKKHSEGPSNFCSICNREGQKCSHQDPIESSDSYGDLSDASDLKTPEKQSANGSFSCDMAVPKNKMESDGEKKYPCPECGSFFRSKSYLNKHIQKVHVRALGGPLGDLGPALGSPFSPQQNMSLLESFGFQIVQSAFASSLVDPEVDQQPMGPEGK
binding to GST-RIα (RIα): showed binding to GST-RIα but not to GST control
